Source: ChEMBL document CHEMBL1201862, “PubChem BioAssay data set” (2004)
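Five concentrations, 48 hours, 96-well plates. At the GI50, growth is halved.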 Calls of active or inactive are those of the source. Cut-off read from the data, not from the text of the source: active = GI50 up to about 1.1 µM and inactive = higher.

Key:
Test in all cases: NCI anticancer screen, dose series, 48 h
BT-549 = system: BT-549
A549 = system: A549
CCRF-CEM = system: CCRF-CEM
A498 = system: A498
ACHN = system: ACHN
PC-3 = system: PC-3
EKVX = system: EKVX
SK-MEL-5 = system: SK-MEL-5
SK-MEL-28 = system: SK-MEL-28
IGROV-1 = system: IGROV-1
HT-29 = system: HT-29
NCI-H226 = system: NCI-H226
HOP-62 = system: HOP-62
SNB-75 = system: SNB-75
MCF7 = system: MCF7
Malme-3M = system: Malme-3M
OVCAR-3 = system: OVCAR-3
SF-268 = system: SF-268
HCC 2998 = system: HCC 2998
LOX IMVI = system: LOX IMVI

Measured: GI50

C1=N\c2ccc(cc2)/N=C\c2ccc(cc2)OCc2cccc(n2)COc2ccc/1cc2
inactive: BT-549 > 100 µM | A549 > 100 µM | CCRF-CEM > 100 µM | A498 > 100 µM | ACHN > 100 µM | PC-3 > 100 µM | EKVX > 100 µM | SK-MEL-5 > 100 µM | SK-MEL-28 > 100 µM | IGROV-1 > 100 µM | HT-29 > 100 µM | NCI-H226 > 100 µM | HOP-62 > 100 µM | SNB-75 > 100 µM | MCF7 > 100 µM | Malme-3M > 100 µM | OVCAR-3 > 100 µM | SF-268 > 100 µM

CCCCC/C=C1\CC(CO)(COC(=O)CC(C(C)C)C(C)C)OC1=O (stereo not drawn)
inactive: BT-549 16.4 µM | A549 8.89 µM | CCRF-CEM 11.8 µM | A498 15.8 µM | ACHN 13 µM | PC-3 10.5 µM | EKVX 13.7 µM | SK-MEL-5 11 µM | SK-MEL-28 16.1 µM | IGROV-1 17.4 µM | HT-29 19.9 µM | NCI-H226 13.7 µM | HOP-62 6 µM | SNB-75 12.1 µM | HCC 2998 15.4 µM | MCF7 21.6 µM | Malme-3M 15.3 µM | OVCAR-3 17.5 µM | SF-268 17.9 µM

O=C(Cc1nc2ccc(C(=O)c3ccccc3)cc2nc1O)C(=O)Nc1ccc(Br)cc1
inactive: BT-549 > 100 µM | A549 > 100 µM | A498 > 100 µM | ACHN 71.8 µM | PC-3 88.1 µM | LOX IMVI 79.4 µM | EKVX > 100 µM | SK-MEL-5 > 100 µM | SK-MEL-28 > 100 µM | IGROV-1 > 100 µM | HT-29 > 100 µM | NCI-H226 78.2 µM | HOP-62 > 100 µM | SNB-75 38 µM | MCF7 > 100 µM | Malme-3M > 100 µM | OVCAR-3 > 100 µM | SF-268 > 100 µM

Cc1cc2nc3c(N)nn(CCCN(C)C)c3nc2cc1C
inactive: BT-549 > 100 µM | A549 > 100 µM | A498 > 100 µM | ACHN 60.3 µM | PC-3 > 100 µM | EKVX > 100 µM | SK-MEL-5 > 100 µM | SK-MEL-28 > 100 µM | HT-29 38.3 µM | HOP-62 > 100 µM | SNB-75 > 100 µM | HCC 2998 41.3 µM | MCF7 33.4 µM | OVCAR-3 > 100 µM | SF-268 > 100 µM

Clc1ccc2c(NCCNC3CCCCC3)ccnc2c1
inactive: BT-549 10.5 µM | A549 13.6 µM | CCRF-CEM 2.81 µM | A498 2.11 µM | ACHN 12.5 µM | PC-3 12.9 µM | LOX IMVI 2.67 µM | EKVX 3.31 µM | SK-MEL-5 1.62 µM | SK-MEL-28 1.86 µM | IGROV-1 11.8 µM | HT-29 3.15 µM | NCI-H226 10.6 µM | HOP-62 11.9 µM | SNB-75 4.63 µM | MCF7 4.53 µM | Malme-3M 1.87 µM | OVCAR-3 15 µM | SF-268 9.64 µM

O=[As](O)(O)c1ccc(NCc2ccccc2)cc1
inactive: BT-549 > 100 µM | A549 > 100 µM | A498 > 100 µM | ACHN > 100 µM | PC-3 > 100 µM | LOX IMVI > 100 µM | EKVX > 100 µM | SK-MEL-5 > 100 µM | SK-MEL-28 > 100 µM | IGROV-1 > 100 µM | HT-29 > 100 µM | NCI-H226 > 100 µM | HOP-62 > 100 µM | SNB-75 > 100 µM | MCF7 > 100 µM | Malme-3M > 100 µM | OVCAR-3 > 100 µM | SF-268 > 100 µM

Cn1c(=O)c2sc3cc4c(cc3c2c2ccccc21)sc1c(=O)n(C)c2ccccc2c14
inactive: BT-549 19.8 µM | A549 89.3 µM | CCRF-CEM 40.1 µM | A498 > 100 µM | ACHN 19.2 µM | PC-3 > 100 µM | EKVX > 100 µM | SK-MEL-5 > 100 µM | SK-MEL-28 > 100 µM | IGROV-1 65.9 µM | HT-29 > 100 µM | NCI-H226 > 100 µM | HOP-62 19.9 µM | SNB-75 12.9 µM | HCC 2998 > 100 µM | MCF7 > 100 µM | Malme-3M 81.7 µM | OVCAR-3 > 100 µM | SF-268 59.7 µM

CCOn1cc(C[C@@]2(O)C(=O)OC3[C@@H](O)CO[C@@]32O)c2ccccc21 (stereo partly drawn)
inactive: BT-549 > 100 µM | A549 > 100 µM | CCRF-CEM 36.5 µM | A498 1.94 µM | ACHN > 100 µM | PC-3 > 100 µM | LOX IMVI > 100 µM | EKVX > 100 µM | SK-MEL-5 > 100 µM | SK-MEL-28 > 100 µM | IGROV-1 > 100 µM | HT-29 > 100 µM | NCI-H226 > 100 µM | HOP-62 > 100 µM | SNB-75 > 100 µM | MCF7 > 100 µM | Malme-3M > 100 µM | OVCAR-3 > 100 µM | SF-268 > 100 µM

NC(CSC1c2ccccc2-c2ccccc21)C(=O)O (stereo not drawn)
inactive: BT-549 > 100 µM | A549 > 100 µM | CCRF-CEM > 100 µM | A498 > 100 µM | ACHN > 100 µM | PC-3 > 100 µM | LOX IMVI > 100 µM | EKVX > 100 µM | SK-MEL-5 > 100 µM | SK-MEL-28 > 100 µM | IGROV-1 > 100 µM | HT-29 > 100 µM | NCI-H226 > 100 µM | HOP-62 > 100 µM | SNB-75 > 100 µM | MCF7 > 100 µM | Malme-3M > 100 µM | OVCAR-3 > 100 µM

CN1CCc2ccccc2C1Cc1ccccc1NC(=O)c1sc2ccccc2c1Cl (stereo not drawn)
inactive: BT-549 > 100 µM | A549 > 100 µM | CCRF-CEM 50.9 µM | A498 > 100 µM | ACHN > 100 µM | PC-3 > 100 µM | EKVX > 100 µM | SK-MEL-5 > 100 µM | SK-MEL-28 > 100 µM | IGROV-1 > 100 µM | NCI-H226 > 100 µM | HOP-62 > 100 µM | SNB-75 > 100 µM | HCC 2998 > 100 µM | MCF7 > 100 µM | Malme-3M > 100 µM | OVCAR-3 > 100 µM | SF-268 > 100 µM

O=C1c2c(O)cccc2Cc2cc(CO)cc(O)c21
inactive: BT-549 2.01 µM | A549 2.92 µM | CCRF-CEM 3.28 µM | A498 4.22 µM | ACHN 2.94 µM | EKVX 3.03 µM | SK-MEL-5 1.69 µM | SK-MEL-28 3.96 µM | IGROV-1 4.03 µM | HT-29 3.48 µM | NCI-H226 5.36 µM | HOP-62 3.01 µM | HCC 2998 2.66 µM | MCF7 2.58 µM | Malme-3M 2.21 µM | OVCAR-3 1.66 µM | SF-268 2.05 µM
active: PC-3 1.08 µM | SNB-75 1.05 µM

COc1ccc(/C=N/n2c(C)n[nH]c2=O)cc1
inactive: BT-549 > 100 µM | A549 > 100 µM | CCRF-CEM > 100 µM | A498 > 100 µM | ACHN > 100 µM | PC-3 > 100 µM | EKVX 85.7 µM | SK-MEL-28 > 100 µM | HT-29 > 100 µM | NCI-H226 > 100 µM | HOP-62 > 100 µM | SNB-75 > 100 µM | HCC 2998 > 100 µM | MCF7 > 100 µM | Malme-3M > 100 µM | OVCAR-3 54.3 µM | SF-268 > 100 µM

CN(C)/C=N/CCN1CCOCC1
inactive: BT-549 > 100 µM | A549 > 100 µM | CCRF-CEM > 100 µM | A498 > 100 µM | ACHN > 100 µM | PC-3 > 100 µM | LOX IMVI > 100 µM | EKVX > 100 µM | SK-MEL-5 > 100 µM | SK-MEL-28 57.3 µM | IGROV-1 > 100 µM | HT-29 > 100 µM | NCI-H226 > 100 µM | HOP-62 > 100 µM | SNB-75 97.7 µM | MCF7 > 100 µM | Malme-3M > 100 µM | OVCAR-3 > 100 µM | SF-268 > 100 µM

O=C1CSC(c2cccc(Cl)c2)N1c1ccc(-n2c(-c3ccccc3)nc3ccccc3c2=O)cc1 (stereo not drawn)
inactive: BT-549 9.98 µM | A549 > 100 µM | CCRF-CEM 40 µM | A498 94.8 µM | ACHN 79.3 µM | PC-3 51.3 µM | LOX IMVI 46.2 µM | EKVX > 100 µM | SK-MEL-5 47 µM | SK-MEL-28 > 100 µM | IGROV-1 59.2 µM | HT-29 97.7 µM | HOP-62 > 100 µM | HCC 2998 43.7 µM | MCF7 30.3 µM | Malme-3M > 100 µM | OVCAR-3 > 100 µM | SF-268 8.07 µM

CN(C)Cc1c[nH]c2ncnc(O)c12
inactive: BT-549 > 100 µM | A549 86.5 µM | CCRF-CEM 19.2 µM | A498 > 100 µM | ACHN 38 µM | PC-3 56.2 µM | LOX IMVI 19 µM | EKVX 98.2 µM | SK-MEL-5 53.7 µM | SK-MEL-28 46.1 µM | IGROV-1 35 µM | HT-29 28.2 µM | NCI-H226 > 100 µM | HOP-62 > 100 µM | SNB-75 33.3 µM | MCF7 24.7 µM | Malme-3M 77.1 µM | OVCAR-3 > 100 µM | SF-268 73.1 µM
